Measurements taken from publication PMC9927415, “Tyrosine Kinase Inhibitors Display Potent Activity against Cryptosporidium parvum” (Microbiology Spectrum, 2022).

What was measured:
Assay in all cases: KINOMEscan competitive binding, whole panel
[1] = biological target: T1, panel of 203 kinases (Homo sapiens, UniProt P49761); details: 10 µM, n=1; kinase CLK3; read-out: Percent inhibition CLK3
T1 construct: purchased DiscoverX (KINOMEscan)
Outline: (§1)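 This competitive binding format measures displacement of T7 phage-tagged kinases from an immobilized ATP-site ligand by the test compound; values are percentage inhibition.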

[2] = biological target: T2, panel of 203 kinases (Homo sapiens, UniProt O14976); details: 10 µM, n=1; kinase GAK; read-out: Percent inhibition GAK
T2 construct: purchased DiscoverX (KINOMEscan)
T2 sequence (O14976 1-1311): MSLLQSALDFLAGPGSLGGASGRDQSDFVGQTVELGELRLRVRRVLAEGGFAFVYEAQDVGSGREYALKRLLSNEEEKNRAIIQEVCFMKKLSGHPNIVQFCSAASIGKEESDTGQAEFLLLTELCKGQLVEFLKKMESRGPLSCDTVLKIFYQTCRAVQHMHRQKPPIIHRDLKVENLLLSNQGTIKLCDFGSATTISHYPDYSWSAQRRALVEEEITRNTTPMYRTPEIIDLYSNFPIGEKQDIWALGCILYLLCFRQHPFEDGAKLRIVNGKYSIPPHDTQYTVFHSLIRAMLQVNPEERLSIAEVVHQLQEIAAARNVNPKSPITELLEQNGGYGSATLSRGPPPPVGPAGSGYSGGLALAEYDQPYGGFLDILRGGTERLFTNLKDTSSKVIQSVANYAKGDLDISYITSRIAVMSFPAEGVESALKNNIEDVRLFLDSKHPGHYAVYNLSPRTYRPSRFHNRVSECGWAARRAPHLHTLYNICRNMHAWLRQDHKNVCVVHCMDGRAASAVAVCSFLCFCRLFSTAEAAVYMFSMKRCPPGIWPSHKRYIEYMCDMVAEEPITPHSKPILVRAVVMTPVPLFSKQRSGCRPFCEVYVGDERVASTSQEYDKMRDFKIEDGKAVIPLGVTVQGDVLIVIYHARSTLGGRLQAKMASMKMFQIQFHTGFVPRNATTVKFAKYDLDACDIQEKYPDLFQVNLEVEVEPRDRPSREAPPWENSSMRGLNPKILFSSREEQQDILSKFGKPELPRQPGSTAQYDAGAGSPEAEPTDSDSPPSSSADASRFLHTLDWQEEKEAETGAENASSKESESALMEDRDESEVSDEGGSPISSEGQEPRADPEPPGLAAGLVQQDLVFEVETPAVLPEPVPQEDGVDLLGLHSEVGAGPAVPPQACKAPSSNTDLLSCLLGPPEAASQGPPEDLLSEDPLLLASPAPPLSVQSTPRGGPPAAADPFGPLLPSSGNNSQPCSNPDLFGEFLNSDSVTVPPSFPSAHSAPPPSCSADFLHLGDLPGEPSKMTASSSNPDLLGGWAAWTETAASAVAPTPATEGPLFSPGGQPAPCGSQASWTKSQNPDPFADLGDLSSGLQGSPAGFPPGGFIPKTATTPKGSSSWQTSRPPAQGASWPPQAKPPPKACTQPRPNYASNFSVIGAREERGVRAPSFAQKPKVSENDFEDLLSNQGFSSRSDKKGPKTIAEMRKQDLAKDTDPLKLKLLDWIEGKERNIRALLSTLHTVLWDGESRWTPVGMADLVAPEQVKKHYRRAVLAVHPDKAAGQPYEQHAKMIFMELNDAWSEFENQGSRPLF
Outline: as §1

[3] = biological target: T3, panel of 203 kinases (Homo sapiens, UniProt Q9P2K8, S808G); details: 10 µM, n=1; kinase GCN2(Kin.Dom.2,S808G); read-out: Percent inhibition GCN2(Kin.Dom.2,S808G)
T3 construct: purchased DiscoverX (KINOMEscan)
Outline: as §1

[4] = biological target: T4, panel of 203 kinases (Homo sapiens, UniProt Q9UIK4); details: 10 µM, n=1; kinase DAPK2; read-out: Percent inhibition DAPK2
T4 construct: purchased DiscoverX (KINOMEscan)
Outline: as §1

[5] = biological target: T5, panel of 203 kinases (Homo sapiens, UniProt P29320); details: 10 µM, n=1; kinase EPHA3; read-out: Percent inhibition EPHA3
T5 construct: purchased DiscoverX (KINOMEscan)
T5 sequence (P29320 21-983): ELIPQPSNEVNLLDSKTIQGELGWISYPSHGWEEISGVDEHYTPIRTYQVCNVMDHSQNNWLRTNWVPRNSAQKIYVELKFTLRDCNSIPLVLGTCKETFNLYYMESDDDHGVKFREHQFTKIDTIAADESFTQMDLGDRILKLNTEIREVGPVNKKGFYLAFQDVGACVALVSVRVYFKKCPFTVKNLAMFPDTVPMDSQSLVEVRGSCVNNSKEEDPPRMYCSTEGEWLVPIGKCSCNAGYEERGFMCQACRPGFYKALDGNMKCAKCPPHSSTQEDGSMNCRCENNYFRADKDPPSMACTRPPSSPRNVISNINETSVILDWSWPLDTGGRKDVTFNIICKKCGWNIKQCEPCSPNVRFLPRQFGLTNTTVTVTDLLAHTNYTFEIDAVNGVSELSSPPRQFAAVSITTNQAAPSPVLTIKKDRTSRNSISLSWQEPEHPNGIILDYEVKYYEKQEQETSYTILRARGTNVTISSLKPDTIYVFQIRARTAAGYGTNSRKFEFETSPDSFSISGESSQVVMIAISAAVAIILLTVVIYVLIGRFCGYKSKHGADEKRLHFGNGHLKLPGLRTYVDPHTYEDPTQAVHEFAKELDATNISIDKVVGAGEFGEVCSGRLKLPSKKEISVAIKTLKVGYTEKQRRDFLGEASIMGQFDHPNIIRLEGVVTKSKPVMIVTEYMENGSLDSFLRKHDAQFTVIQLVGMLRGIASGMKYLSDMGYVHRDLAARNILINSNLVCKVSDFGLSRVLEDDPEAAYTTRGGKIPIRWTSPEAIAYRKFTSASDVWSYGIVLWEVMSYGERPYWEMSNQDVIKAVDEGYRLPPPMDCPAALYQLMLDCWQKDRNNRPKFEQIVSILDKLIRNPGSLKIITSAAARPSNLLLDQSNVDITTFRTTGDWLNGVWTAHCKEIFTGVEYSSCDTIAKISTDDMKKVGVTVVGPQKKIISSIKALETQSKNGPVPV
Outline: as §1

T1 sequence (P49761 whole entry): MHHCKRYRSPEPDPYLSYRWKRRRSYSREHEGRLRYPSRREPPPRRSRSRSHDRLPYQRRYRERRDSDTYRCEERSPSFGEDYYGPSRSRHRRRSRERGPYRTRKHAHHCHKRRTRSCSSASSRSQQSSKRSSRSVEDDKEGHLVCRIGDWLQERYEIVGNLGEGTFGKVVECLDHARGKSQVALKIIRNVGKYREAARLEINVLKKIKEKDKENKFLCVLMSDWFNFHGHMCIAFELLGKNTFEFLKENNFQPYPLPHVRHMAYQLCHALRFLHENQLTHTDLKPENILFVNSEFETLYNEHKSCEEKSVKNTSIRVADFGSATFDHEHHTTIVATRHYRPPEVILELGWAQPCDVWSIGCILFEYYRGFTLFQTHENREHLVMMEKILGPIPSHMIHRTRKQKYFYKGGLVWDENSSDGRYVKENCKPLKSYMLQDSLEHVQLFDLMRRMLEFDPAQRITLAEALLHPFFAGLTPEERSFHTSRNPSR
T3 sequence (Q9P2K8 whole entry S808G): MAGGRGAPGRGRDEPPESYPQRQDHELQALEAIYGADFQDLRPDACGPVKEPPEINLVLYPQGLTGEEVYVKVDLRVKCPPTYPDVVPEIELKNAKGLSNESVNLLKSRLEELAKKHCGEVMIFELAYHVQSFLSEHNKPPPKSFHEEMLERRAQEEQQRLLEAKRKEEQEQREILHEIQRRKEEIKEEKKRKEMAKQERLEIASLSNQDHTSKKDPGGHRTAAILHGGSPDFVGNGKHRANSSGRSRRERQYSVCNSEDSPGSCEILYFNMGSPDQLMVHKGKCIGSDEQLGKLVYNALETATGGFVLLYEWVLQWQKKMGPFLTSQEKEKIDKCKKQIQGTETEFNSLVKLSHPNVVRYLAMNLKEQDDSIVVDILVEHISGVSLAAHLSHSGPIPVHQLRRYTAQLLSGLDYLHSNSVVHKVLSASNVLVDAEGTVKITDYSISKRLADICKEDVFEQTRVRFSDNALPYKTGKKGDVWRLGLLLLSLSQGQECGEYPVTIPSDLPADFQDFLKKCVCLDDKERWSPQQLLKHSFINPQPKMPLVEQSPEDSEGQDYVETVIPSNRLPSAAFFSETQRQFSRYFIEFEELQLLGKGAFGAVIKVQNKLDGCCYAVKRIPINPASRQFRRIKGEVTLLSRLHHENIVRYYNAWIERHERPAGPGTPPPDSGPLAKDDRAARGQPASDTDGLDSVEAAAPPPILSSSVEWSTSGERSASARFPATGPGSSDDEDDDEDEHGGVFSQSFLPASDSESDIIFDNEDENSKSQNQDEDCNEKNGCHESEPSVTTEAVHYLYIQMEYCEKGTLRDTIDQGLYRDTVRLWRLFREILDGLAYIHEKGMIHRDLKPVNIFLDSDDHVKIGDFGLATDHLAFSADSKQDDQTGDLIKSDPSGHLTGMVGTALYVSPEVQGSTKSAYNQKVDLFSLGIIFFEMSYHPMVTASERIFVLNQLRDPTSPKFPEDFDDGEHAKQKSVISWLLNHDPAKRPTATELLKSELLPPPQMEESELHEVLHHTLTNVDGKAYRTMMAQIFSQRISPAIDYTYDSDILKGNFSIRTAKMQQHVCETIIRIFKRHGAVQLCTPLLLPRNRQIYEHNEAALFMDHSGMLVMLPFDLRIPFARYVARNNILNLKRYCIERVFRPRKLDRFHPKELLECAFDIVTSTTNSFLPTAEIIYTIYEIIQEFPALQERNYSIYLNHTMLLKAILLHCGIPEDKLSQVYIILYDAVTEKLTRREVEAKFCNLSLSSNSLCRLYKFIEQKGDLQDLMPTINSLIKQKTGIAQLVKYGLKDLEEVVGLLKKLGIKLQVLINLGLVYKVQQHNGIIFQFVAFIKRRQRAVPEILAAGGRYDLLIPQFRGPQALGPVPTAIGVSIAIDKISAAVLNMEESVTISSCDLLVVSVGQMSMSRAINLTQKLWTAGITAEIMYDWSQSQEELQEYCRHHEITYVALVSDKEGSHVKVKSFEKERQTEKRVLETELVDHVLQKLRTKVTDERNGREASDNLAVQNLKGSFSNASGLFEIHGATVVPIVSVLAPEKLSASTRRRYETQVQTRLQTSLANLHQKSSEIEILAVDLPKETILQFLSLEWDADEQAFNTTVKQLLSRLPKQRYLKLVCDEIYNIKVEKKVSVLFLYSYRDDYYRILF
T4 sequence (Q9UIK4 whole entry): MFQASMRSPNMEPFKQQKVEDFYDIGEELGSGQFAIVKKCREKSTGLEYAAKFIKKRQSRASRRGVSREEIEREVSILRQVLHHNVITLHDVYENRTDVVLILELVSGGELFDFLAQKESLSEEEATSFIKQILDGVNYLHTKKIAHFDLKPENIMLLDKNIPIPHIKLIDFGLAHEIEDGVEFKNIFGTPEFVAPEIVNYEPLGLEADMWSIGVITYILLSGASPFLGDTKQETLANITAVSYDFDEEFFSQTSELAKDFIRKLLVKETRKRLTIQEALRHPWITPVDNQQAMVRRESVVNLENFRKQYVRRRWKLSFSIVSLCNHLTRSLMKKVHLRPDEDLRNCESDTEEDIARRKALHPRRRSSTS

Row | SMILES | inhibition at 10 µM [1] [%] | inhibition at 10 µM [2] [%] | inhibition at 10 µM [3] [%] | inhibition at 10 µM [4] [%] | inhibition at 10 µM [5] [%]
1 | C[C@@H](Oc1cc(-c2cnc3ccccn23)sc1C(N)=O)c1ccccc1Cl [Compound 8] | 0 | 97.2 | 86.6 | 88.3 | 0
2 | Cc1ccc(O)cc1N(C)c1ccnc(Nc2cccc(S(N)(=O)=O)c2)n1 [Compound 4] | 70.5 | 99.6 | 0 | 0 | 100
3 | COc1cc(Nc2nccc(-c3sc(N)nc3-c3cccc(NC(=O)c4c(F)cccc4F)c3)n2)cc(OC)c1OC [Compound 7] | 0 | 100 | 99.9 | 0 | 99.7
4 | CN1CCN(c2ccc(Nc3nccc(-c4cnn5ncccc45)n3)cc2C#N)CC1 [Compound 1] | 98.7 | 97.9 | 99.7 | 92.2 | 98
5 | Fc1cccc(COc2ccc(Nc3ncnc4c3CN(CCN3CCOCC3)CC4)cc2Cl)c1 [Compound 6] | 0 | 0 | 0 | 0 | 0
6 | Cc1ccc(O)cc1Nc1ccnc(Nc2cccc(C(N)=O)c2)n1 [Compound 3] | 0 | 99.8 | 0 | 0 | 100
7 | Clc1ccc(Nc2ncc(-c3ccccc3)s2)cc1 [Compound 10] | 0 | 0 | 0 | 0 | 0
8 | COc1ccc(Nc2nccc(-c3cnn4ncccc34)n2)cc1 [Compound 2] | 94.8 | 99.9 | 98.2 | 0 | 85
9 | c1ccc(COc2cccc(-c3ccnc4[nH]ccc34)c2)cc1 [Compound 9] | 0 | 0 | 0 | 0 | 0
10 | Nc1ncc2c(-c3ccncc3)c[nH]c2n1 [Compound 11] | 84.9 | 97.2 | 88.5 | 0 | 94.6
